Results published in paper PMC5301048, “Selection and early clinical evaluation of the brain‐penetrant 11β‐hydroxysteroid dehydrogenase type 1 (11β‐HSD1) inhibitor UE2343 (Xanamem™)” (British Journal of Pharmacology, 2017).
Where two headings read alike, the source gives them in different places.

Columns and labels:
[1] = Multiple ascending dose study, pharmacokinetics; assay type: in vivo; settings: human; for AUC0–12h / Ae(0–12h) (%) / Ae(0–12h), amount excreted in urine / Oral clearance: mean (CV%); for estimated maximal CSF concentration / estimated mean CSF nadir at steady state (Cmin): calculated from plasma levels and CSF:plasma ratio; for Tmax / Cmax / half-life: plasma, oral
Protocol: (§1) A double‐blind, randomized, placebo‐controlled multiple ascending dose study was carried out at Linear Clinical Research Ltd, Nedlands, Australia. Each cohort consisted of eight healthy male subjects. Each subject received UE2343 or placebo twice daily (b.i.d ) (12 hourly) in the fed state for 9 days (Day 1 to Day 9) and once on the morning of Day 10 (19 doses in total). Dose cohorts were 10, 20 and 35 mg. Dose escalation and selection was dependent upon satisfactory review of the blinded safety (up to Day 17 ± 2) and plasma pharmacokinetics (up to Day 12) data from the preceding cohort. Safety, pharmacokinetic and pharmacodynamic assessments were made at pre‐determined time‐points during each part of the study.
(§2) Laboratory evaluation of clinical safety parameters was carried out using standard validated methods. Measurement of plasma pharmacodynamic markers [adrenocorticotropic hormone (ACTH), cortisol, 4‐androstenedione, testosterone and dehydroepiandrosterone sulphate (DHEA‐s)] was carried out using commercially available kits. Each method was fully validated prior to analysis. Urinary steroid metabolites were measured according to established methods (Boonen et al., 2013). UE2343 levels in plasma, urine and CSF was determined by LC–MS/MS using fully validated methods.
(§3) The data and statistical analysis comply with the recommendations on experimental design and analysis in pharmacology (Curtis et al., 2015). Levels of probability, P < 0.05 were deemed to constitute the threshold for statistical significance. Pharmacokinetic parameters, except Tmax (time of maximum observed drug concentration), are given as mean ± coefficient of variation (CV%). Tmax is given as median ± range. For each of the pharmacodynamic parameters [ACTH, cortisol, adrenal androgens, tetrahydrocortisols (THFs)/tetrahydrocortisone (THE) ratio], the maximum % change from baseline for each subject was subjected to ANOVA. For selected data, an additional covariate factor for the baseline was also included in the ANOVA/analysis of covariance (ANCOVA) model. Associated P‐values <0.05 for each comparison have been presented.

hERG K+ channel = biological target: T1, hERG K+ channel (Homo sapiens, UniProt Q12809); test: hERG inhibition, IonWorks Quattro patch clamp; assay type: cell-based
T1 construct: Chinese hamster lung cell line stably expressing the full length hERG channel; host or cells: Chinese hamster lung cell line
Protocol: Testing was performed by Essen Instruments, Hertfordshire, UK. Compounds were tested for inhibition of the human ether a go‐go related gene (hERG) K+ channel in a Chinese hamster lung cell line stably expressing the full length hERG channel. Single cell ionic currents were measured in the perforated patch clamp configuration at room temperature using an IonWorks Quattro instrument. Eight‐point concentration–response curves were generated using threefold serial dilutions from the maximum final assay concentration. IC50 values were obtained from a four‐parameter logistic fit of the % inhibition data.

[2] = Microsomal stability, rat liver microsomes; assay type: in vitro ADME; settings: mean ± SD [n]
Protocol: Microsomal stability was determined using pooled human, rat or dog liver microsomes according to the method described in WO2011135276 (Webster et al., 2011a).

[3] = tested on: HPA axis hormones and steroids; test: Multiple ascending dose study, HPA axis hormones and steroids; assay type: in vivo; settings: human, not significant vs placebo
Protocol: as §1, §2
as §3, with “Associated P‐values <0.05 for each comparison have been presented.” left out

[4] = Clinical safety and tolerability in healthy subjects; assay type: in vivo, human
Protocol: A double‐blind, randomized, placebo‐controlled single ascending dose study was carried out at Simbec Research Ltd, Merthyr Tydfil, UK. Each cohort consisted of six healthy male subjects and two females of non‐child bearing potential. Two male ‘dose leader’ subjects (1 active : 1 placebo) were dosed first in each cohort. The remainder of the cohort (5 active : 1 placebo) were dosed 24 h later. Dose cohorts were 2, 5, 10, 18, 25 and 35 mg. Safety, pharmacokinetic and pharmacodynamic assessments were made at pre‐determined time‐points during each part of the study. Dose escalation was dependent upon satisfactory review of the blinded safety (up to Day 6) and pharmacokinetic (up to 24 h post‐dose) data from the preceding cohort.
as §1
A non‐randomized, open label, multiple dose phase I study to determine the pharmacokinetic parameters of UE2343 in CSF was carried out at Linear Clinical Research Ltd, Nedlands, Australia. Four healthy male subjects each received 35 mg UE2343 b.i.d (12 hourly) fed (30 min after the start of a standard meal) for 3 days (Day 1 to Day 3) and once on the morning of Day 4 (seven doses in total). Plasma pharmacokinetic samples were taken from each subject on Day 1 and Day 4. A single CSF sample was taken from each subject at 5 h post‐final dose on Day 4, corresponding to the plasma Tmax (time to maximum plasma concentration).
as §2

[5] = multiple ascending dose study, 24 subjects (active and placebo)
[6] = multiple ascending dose study, in words

T1 sequence (Q12809 whole entry): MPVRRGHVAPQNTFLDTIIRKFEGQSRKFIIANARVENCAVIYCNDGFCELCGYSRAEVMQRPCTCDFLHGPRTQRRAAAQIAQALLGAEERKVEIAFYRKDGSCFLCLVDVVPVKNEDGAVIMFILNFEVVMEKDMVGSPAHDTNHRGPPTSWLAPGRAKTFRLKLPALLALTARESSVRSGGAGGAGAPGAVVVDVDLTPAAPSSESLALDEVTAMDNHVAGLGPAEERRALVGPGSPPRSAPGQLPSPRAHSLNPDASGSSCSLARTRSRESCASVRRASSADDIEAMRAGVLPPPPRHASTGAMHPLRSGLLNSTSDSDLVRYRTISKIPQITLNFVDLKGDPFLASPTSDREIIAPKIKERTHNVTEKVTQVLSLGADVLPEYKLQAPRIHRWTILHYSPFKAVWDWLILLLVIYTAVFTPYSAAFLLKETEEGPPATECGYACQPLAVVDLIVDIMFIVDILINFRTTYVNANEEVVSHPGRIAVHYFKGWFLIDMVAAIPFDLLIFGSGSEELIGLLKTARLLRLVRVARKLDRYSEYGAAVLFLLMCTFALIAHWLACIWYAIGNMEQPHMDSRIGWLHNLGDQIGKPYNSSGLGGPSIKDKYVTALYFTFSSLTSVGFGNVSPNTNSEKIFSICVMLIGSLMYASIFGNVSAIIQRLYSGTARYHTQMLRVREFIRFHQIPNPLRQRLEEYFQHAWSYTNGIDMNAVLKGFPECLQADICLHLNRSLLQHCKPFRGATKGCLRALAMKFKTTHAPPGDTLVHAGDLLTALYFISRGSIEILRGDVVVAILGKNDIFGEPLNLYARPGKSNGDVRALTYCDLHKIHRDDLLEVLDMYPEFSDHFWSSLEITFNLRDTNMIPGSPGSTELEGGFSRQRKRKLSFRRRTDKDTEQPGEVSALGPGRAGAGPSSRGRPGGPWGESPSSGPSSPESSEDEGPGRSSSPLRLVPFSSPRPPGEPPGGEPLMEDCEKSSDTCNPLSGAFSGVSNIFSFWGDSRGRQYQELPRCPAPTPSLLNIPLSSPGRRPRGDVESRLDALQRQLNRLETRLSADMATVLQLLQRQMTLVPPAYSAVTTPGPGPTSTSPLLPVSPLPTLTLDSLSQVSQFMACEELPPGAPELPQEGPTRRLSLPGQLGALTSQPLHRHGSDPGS

AUC0–12h ([1]; 10 mg b.i.d, Day 1): 207 (79%) ng^.h·mL^−1
AUC0–12h ([1]; 10 mg b.i.d, Day 10): 1917 (66%) ng^.h·mL^−1
Oral clearance ([1]; 10 mg b.i.d, Day 10): 7.24 (60%) L·h^−1
estimated maximal CSF concentration ([1]; 10 mg b.i.d): 20 ng/mL
estimated mean CSF nadir at steady state (Cmin) ([1]; 10 mg b.i.d): 13 ng/mL
AUC0–12h ([1]; 20 mg b.i.d, Day 1): 623 (69%) ng^.h·mL^−1
AUC0–12h ([1]; 20 mg b.i.d, Day 10): 3175 (30%) ng^.h·mL^−1
Oral clearance ([1]; 20 mg b.i.d, Day 10): 6.85 (33%) L·h^−1
estimated maximal CSF concentration ([1]; 20 mg b.i.d): 34 ng/mL
estimated mean CSF nadir at steady state (Cmin) ([1]; 20 mg b.i.d): 22 ng/mL
AUC0–12h ([1]; 35 mg b.i.d, Day 1): 1843 (33%) ng^.h·mL^−1
AUC0–12h ([1]; 35 mg b.i.d, Day 10): 7909 (36%) ng^.h·mL^−1
Oral clearance ([1]; 35 mg b.i.d, Day 10): 5.02 (43%) L·h^−1
estimated maximal CSF concentration ([1]; 35 mg b.i.d): 81 ng/mL
estimated mean CSF nadir at steady state (Cmin) ([1]; 35 mg b.i.d): 50 ng/mL
day by which steady state was achieved ([1]; 12 hourly dosing): ≤ 5 days
increase in AUC0–12 from first dose to steady state ([1]; highest dose level (35 mg b.i.d), in words): greater than fourfold
Tmax ([1]; single and multiple dosing, range, read-out: plasma Tmax): 3 to 6 h
Cmax ([1]; male, 10 mg, 10 mg b.i.d, Day 1, mean (CV%)): 29.1 ng/mL
Tmax ([1]; male, 10 mg, 10 mg b.i.d, Day 1, median (range), read-out: Tmax): 6 h
Cmax ([1]; male, 10 mg, 10 mg b.i.d, Day 10, mean (CV%)): 207 ng/mL
half-life ([1]; male, 10 mg, 10 mg b.i.d, Day 10, mean (CV%), read-out: t 1/2 (converted)): 13.8 h
Tmax ([1]; male, 10 mg, 10 mg b.i.d, Day 10, median (range), read-out: Tmax): 4 h
Cmax ([1]; male, 20 mg, 20 mg b.i.d, Day 1, mean (CV%)): 89.2 ng/mL
Tmax ([1]; male, 20 mg, 20 mg b.i.d, Day 1, median (range), read-out: Tmax): 4 h
Cmax ([1]; male, 20 mg, 20 mg b.i.d, Day 10, mean (CV%)): 365 ng/mL
half-life ([1]; male, 20 mg, 20 mg b.i.d, Day 10, mean (CV%), read-out: t 1/2 (converted)): 11.2 h
Tmax ([1]; male, 20 mg, 20 mg b.i.d, Day 10, median (range), read-out: Tmax): 3 h
Cmax ([1]; male, 35 mg, 35 mg b.i.d, Day 1, mean (CV%)): 268 ng/mL
Tmax ([1]; male, 35 mg, 35 mg b.i.d, Day 1, median (range), read-out: Tmax): 4 h
Cmax ([1]; male, 35 mg, 35 mg b.i.d, Day 10, mean (CV%)): 892 ng/mL
half-life ([1]; male, 35 mg, 35 mg b.i.d, Day 10, mean (CV%), read-out: t 1/2 (converted)): 9.99 h
Tmax ([1]; male, 35 mg, 35 mg b.i.d, Day 10, median (range), read-out: Tmax): 4 h
half-life ([1]; male, 35 mg, multiple doses 10, 20 and 35 mg every 12 h, range across doses, read-out: terminal t 1/2): 10 to 14 h
Tmax ([1]; male, multiple doses, range across doses, read-out: median time to peak concentration following each dose): 4 to 6 h
Liver microsomal stability (% parent at 30 min), rat [2]: 74 ± 1 [3] % parent at 30 min
Structure (SMILES): O=C(c1csc(-c2cn[nH]c2)c1)N1C2CCC1CC(O)(c1ncccn1)C2 (stereo not drawn) [compound 4]
Ae(0–12h) (%) ([1]; 10 mg b.i.d, Day 1): 0.35 (50%)
Ae(0–12h), amount excreted in urine ([1]; 10 mg b.i.d, Day 1): 34.6 (50%) μg
Ae(0–12h) (%) ([1]; 10 mg b.i.d, Day 10): 4.08 (46%)
Ae(0–12h), amount excreted in urine ([1]; 10 mg b.i.d, Day 10): 408 (46%) μg
Ae(0–12h) (%) ([1]; 20 mg b.i.d, Day 1): 0.54 (92%)
Ae(0–12h), amount excreted in urine ([1]; 20 mg b.i.d, Day 1): 107 (92%) μg
Ae(0–12h) (%) ([1]; 20 mg b.i.d, Day 10): 3.22 (38%)
Ae(0–12h), amount excreted in urine ([1]; 20 mg b.i.d, Day 10): 644 (38%) μg
Ae(0–12h) (%) ([1]; 35 mg b.i.d, Day 1): 1.03 (46%)
Ae(0–12h), amount excreted in urine ([1]; 35 mg b.i.d, Day 1): 362 (46%) μg
Ae(0–12h) (%) ([1]; 35 mg b.i.d, Day 10): 3.84 (29%)
Ae(0–12h), amount excreted in urine ([1]; 35 mg b.i.d, Day 10): 1345 (29%) μg
fraction excreted in urine in the dosing interval (% Ae) ([1]; at steady state (Day 10)): approximately 4%
IC50 (hERG K+ channel; Chinese hamster lung cells expressing hERG, mean ± SD [n]): > 30 µM
inhibition of the hERG channel (hERG K+ channel; up to a concentration of 30 μM, in words): only marginal inhibition
mean maximum percentage change in ACTH (from baseline) ([3]; 10 mg b.i.d): 222%
mean maximum percentage change in ACTH (from baseline) ([3]; 20 mg b.i.d): 195%
mean maximum percentage change in ACTH (from baseline) ([3]; 35 mg b.i.d): 230%
safety and tolerability ([4]; 2 to 35 mg q.d and 10 to 35 mg b.i.d, in words): safe and well tolerated
intensity of TEAEs ([4]; CSF study, 35 mg b.i.d, in words): mild to moderate
increased alanine aminotransferase, subjects ([4]; CSF study, four subjects, in words): a single subject
diarrhoea, subjects [4, 5]: 2/24
headache (most common TEAE), subjects [4, 5]: 7/24
thrombophlebitis, subjects [4, 5]: 3/24
intensity of TEAEs [4, 6]: mild or moderate
serious TEAEs or TEAEs leading to withdrawal [4, 6]: No serious TEAEs
number of subjects with ≥1 TEAEs ([4]; single ascending dose study): 9
